Measured values from article PMC9732823, “Discovery of Dual Aβ/Tau Inhibitors and Evaluation of Their Therapeutic Effect on a Drosophila Model of Alzheimer’s Disease” (ACS Chemical Neuroscience, 2022).

Assays:
[1] = system: cerebellar granule neurons (CGNs); experiment: Neurotoxicity on primary cultures of cerebellar granule neurons (nuclei counting after Hoechst staining); details: differentiated CGNs, 24 h, percentage of healthy nuclei on total nuclei, mean ± SEM of three experiments
[2] = system: Arctic Aβ42 Drosophila flies; experiment: Climbing assay in Arctic Aβ42 Drosophila flies
Description: Thus, we performed behavioral tests to assess the climbing abilities of Aβ42Drosophila flies with and without treatment with 22 (20 μM), 23 (20 μM), and doxycycline (50 μM), compared to control flies.
(§3) The transactivating protein GAL4 is placed under the control of a specific promoter, with its own spatial and temporal patterns, in this case, Elav, whereas the upstream activation sequence (UAS) localized upstream, the locus controlled by the UAS-Gal4; in our study, UAS expresses construct for the E22G variant of Aβ42 (Arctic Aβ42) (AlzArc2).[56],[64] Around 150 flies (half female/male) for each compound tested were collected and divided into groups of 25 flies. At the top of the media, 25 μL of doxycycline (50 μM), 22 (20 μM), or 23 (20 μM) were added fresh anytime the flies were flipped.
Briefly, males and females 25 per vial were kept at 25 °C. The climbing test was performed on days 7, 14, and 21 after birth. […] The protocol was repeated 10 times at 5-min intervals.

[3] = system: Arctic Aβ42 Drosophila flies; experiment: Lifespan analysis in Arctic Aβ42 Drosophila flies; details: 20 μM in fly food; days 5, 10, 20 post-eclosion
Description: As longevity is a phenotype that can be rapidly measured in this in vivo AD model, we first assessed changes in Drosophila’s lifespan with and without treatment with 22 and 23 (20 μM). […] Doxycycline was tested at 50 μM, a concentration used in similar previous experiments.[59]
as §3
Briefly, males and females 25 per vial were kept at 25 °C.

Tau protein = target: T1, Tau protein (Homo sapiens, UniProt P10636); experiment: Inhibition of Tau aggregation in intact E. coli cells overexpressing Tau (ThS fluorescence); type: cell-based, Escherichia coli; details: read-out: % inhibition Tau aggregation @ 10 μM, intact E. coli cells, compound 10 μM, mean ± SEM of four independent experiments
T1 construct: expressed in transfected cells; host or cells: Escherichia coli BL21 (DE3) with pTARA and pRKT42
Text: (§1) As it would have been labor-intensive and expensive to screen such a number of compounds in two separate antiaggregating studies using recombinant Aβ and Tau, we turned our attention to a simple model of protein aggregation, namely, the intact Escherichia coli (E. coli) cells overexpressing Aβ42 and Tau proteins.[28],[29] Building on the fact that inclusion bodies produced by overexpression of these proteins in E. coli mainly consist of fibrillar aggregates, this simple screening method uses bacteria as an in vivo reservoir for tracking the inhibition of amyloid-type protein aggregation in real time, using the amyloid dye thioflavin S (ThS). Of note, this screening has already been used for the evaluation of libraries of antiaggregating compounds.[28]−[38]
E. coli BL21 (DE3) competent cells were transformed with pTARA containing the RNA-polymerase gen of the T7 phage (T7RP) under the control of the promoter PBAD. E. coli BL21 (DE3) with pTARA competent cells were transformed with the pRKT42 vector encoding four repeats of Tau protein in two inserts. For overnight culture preparation, 10 mL of M9 medium containing 0.5% of glucose, 100 μg·mL^–1 ampicillin, and 12.5 μg·mL^–1 chloramphenicol were inoculated with a colony of BL21 (DE3) bearing the plasmids to be expressed at 37 °C. For expression of Tau protein, the required volume of overnight culture to obtain 1:500 dilution was added to fresh M9 minimal medium containing 0.5% of glucose, 50 μg·mL^–1 ampicillin, 12.5 μg·mL^–1 chloramphenicol, and 25 μM ThS. The bacterial culture was grown at 37 °C and 250 rpm. When the cell density reached ABS600 nm= 0.6, an amount of 980 μL of culture was transferred into Eppendorf tubes of 1.5 mL with 10 μL of each compound to be tested in DMSO and 10 μL of arabinose at 25%. The final concentration of the drug was fixed at 10 μM. The samples were grown overnight at 37 °C and 1400 rpm using a thermomixer (Eppendorf, Hamburg, Germany). As the control of maximal amyloid presence, the same amount of DMSO without the drug was added to the sample. In parallel, noninduced samples (in the absence of arabinose) were also prepared and used as controls for the amyloid absence. In addition, the absorbance at 600 nm of the samples was checked to assess the potential intrinsic toxicity of the compounds and to confirm the correct bacterial growth.
(§2) ThS (T1892) and other chemical reagents were purchased from Sigma (St. Louis, MO). ThS stock solution (25 mM) was prepared in double-distilled water purified through a Milli-Q system (Millipore). For the fluorescence assay, the ThS spectra were measured on an AMINCO-Bowman series 2 luminescence spectrophotometer (Aminco-Bowman AB2, SLM Aminco, Rochester, NY) from 460 to 600 nm at 25 °C using an excitation wavelength of 440 nm and slit widths of 4 nm. The emission at 485 nm (fluorescence peak of ThS in the presence of amyloids) was recorded. To normalize the ThS fluorescence as a function of the bacterial concentration, ABS600nm was obtained using a Shimadzu UV-2401 PC UV–Vis spectrophotometer (Shimadzu, Japan). Note that the fluorescence normalization was carried out considering as 100% the ThS fluorescence of the bacterial cells expressing the peptide or protein in the absence of the drug and 0% the ThS fluorescence of the bacterial cells nonexpressing the peptide or protein.

physchem = details: phosphate buffer (Tau(306-336) aggregation assay conditions), pH 7.4, aqueous buffer
Description: (§4) * The results are the mean of at least two independent measurements each performed in duplicate.
1 Compounds were measured at 50 μM.

Aβ42 = target: T2, Aβ42 (Homo sapiens, UniProt P05067); experiment: Inhibition of Aβ42 aggregation in intact E. coli cells overexpressing Aβ42 (ThS fluorescence); type: cell-based, Escherichia coli; details: read-out: % inhibition Aβ42 aggregation @ 10 μM, intact E. coli cells, compound 10 μM, mean ± SEM of four independent experiments
T2 construct: expressed in transfected cells; host or cells: Escherichia coli BL21 (DE3), pET28a
Text: as §1
Escherichia coli competent cells BL21 (DE3) were transformed with the pET28a vector (Novagen, Inc., Madison, WI) carrying the DNA sequence of Aβ42. Because of the addition of the initiation codon ATG in front of both genes, the overexpressed peptide contains an additional methionine residue at its N terminus. For overnight culture preparation, an amount of 10 mL of M9 minimal medium containing 50 μg·mL^–1 kanamycin was inoculated with a colony of BL21 (DE3) bearing the plasmid to be expressed at 37 °C. For expression of the Aβ42 peptide, the required volume of overnight culture to obtain 1:500 dilution was added into fresh M9 minimal medium containing 50 μg·mL^–1 kanamycin and 250 μM ThS. The bacterial culture was grown at 37 °C and 250 rpm. When the cell density reached ABS600 nm = 0.6, an amount of 980 μL of culture was transferred into Eppendorf tubes of 1.5 mL with 10 μL of each compound to be tested in DMSO and 10 μL of isopropyl 1-thio-β-D-galactopyranoside (IPTG) at 100 mM. The final concentration of the drug was fixed at 10 μM. The samples were grown overnight at 37 °C and 1400 rpm using a thermomixer (Eppendorf, Hamburg, Germany). As the control of the amyloid presence (maximal amyloid presence), the same amount of DMSO without the drug was added to the sample. In parallel, noninduced samples (in the absence of IPTG) were also prepared and used as controls of the non-amyloid presence. In addition, the absorbance at 600 nm of the samples was checked to assess the potential intrinsic toxicity of the compounds and to confirm the correct bacterial growth.
as §2

[4] = Solubility in the in vitro aggregation assay conditions
Description: as §4
1 Compounds were measured at 50 μM.

PAMPA-BBB assay = experiment: PAMPA-BBB assay
Text: Thus, to reduce attrition in the development process, the evaluation of BBB penetration at a very early drug discovery stage is of crucial importance. In light of this, the ability of the previously selected compounds to cross the BBB was predicted by a parallel artificial membrane permeability assay (PAMPA)-BBB,[41] a high-throughput technique widely used as an indicator of a molecule’s passive diffusion through the BBB. Six commercially available drugs were used to validate the assay.
PAMPA (the parallel artificial membrane permeability assay) is a high-throughput screening tool applicable for the prediction of the passive transport of potential drugs across the BBB.[41] In this study, it has been used as a non-cell-based in vitro assay carried out in a coated 96-well membrane filter. The filter membrane of the donor plate was coated with PBL (Polar Brain Lipid, Avanti) in dodecane (4 μL of 20 mg/mL PBL in dodecane) and the acceptor well was filled with 300 μL of phosphate buffer saline, (PBS pH 7.4; VA). The tested compounds were dissolved first in DMSO and then diluted with PBS pH 7.4 to reach the final concentrations of 50–500 μM in the donor well. […] Then, 300 μL of the donor solution (VD) was added to the donor wells and the donor filter plate was carefully put on the acceptor plate so that the coated membrane was “in touch” with both donor solution and acceptor buffer. In principle, the test compound diffuses from the donor well through the polar brain lipid membrane (area = 0.28 cm^2) to the acceptor well. The concentrations of the tested compound in both donor and the acceptor wells were assessed after 3, 4, 5, and 6 h of incubation in quadruplicate using a UV plate reader, Synergy HT (Biotek) at the maximum absorption wavelength of each compound (n=3). In addition to that, solution of the theoretical compound concentration, simulating the equilibrium state established if the membrane were ideally permeable, was prepared and assessed as well. The concentrations of the compounds in the donor and acceptor wells and the equilibrium concentration were calculated from the standard curve and expressed as the permeability (Pe) according to the equation[41] [drawing 1] where [drawing 2]

Tau(306-336) peptide = target: T3, Tau(306-336) peptide (Homo sapiens, UniProt P10636); experiment: Inhibition of Tau(306-336) peptide aggregation (ThT fluorimetric assay); type: biochemical; details: Tau(306-336) 50 μM, compound 50 μM, phosphate buffer pH 7.4, read-out: Inhibition of Tau(306-336) peptide self-aggregation (%) ± SEM
T3 construct: 1 mg of Tau(306-336) (Bachem AG, Germany) was dissolved; purchased Bachem AG, Germany
Description: Secondly, we investigated the ability of the compounds to interfere with Tau aggregation, using the third repeat domain Tau fragment (Tau(306-336) peptide).[44] The aggregation profiles of the Tau(306–336) peptide (50 μM) in the absence and presence of equimolar concentrations of either 22 or 23 were monitored in phosphate buffer 50 mM, pH 7.4, using Thioflavin T (ThT) as the detection dye.
Briefly, 1 mg of Tau(306-336) (Bachem AG, Germany) was dissolved in 1,1,1,3,3,3,-hexafluoro-2-propanol (HFIP), gently vortexed, sonicated, and kept overnight at room temperature. Subsequently, the sample was aliquoted, dried, and stored at −20 °C. Stock solutions of Tau(306-336) peptide (500 μM) were prepared in ultrapure water and immediately used. […] Tau(306-336) aggregation was monitored at 30 °C in a black, clear bottom 96-well plate (Greiner) by the EnSpire multiplate reader (Perkin Elmer) using the ThT fluorimetric assay[14] with some variations. […] Fluorescence data were recorded every 10 min overnight with 1 min shaking at 800 rpm prior to each reading. […] Inhibition % is expressed as the mean ± SEM. Quenching of ThT fluorescence was evaluated by preparing blank solutions containing the inhibitor/reference compound and preformed fibrils of Tau(306–336) peptide.

T3 sequence (P10636 623-653 limits assumed): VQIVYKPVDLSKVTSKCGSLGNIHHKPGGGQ
T2 sequence (P05067 672-713 limits assumed): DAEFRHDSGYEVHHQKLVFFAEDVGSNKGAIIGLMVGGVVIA
T1 sequence (P10636 1-441 isoform P10636-8): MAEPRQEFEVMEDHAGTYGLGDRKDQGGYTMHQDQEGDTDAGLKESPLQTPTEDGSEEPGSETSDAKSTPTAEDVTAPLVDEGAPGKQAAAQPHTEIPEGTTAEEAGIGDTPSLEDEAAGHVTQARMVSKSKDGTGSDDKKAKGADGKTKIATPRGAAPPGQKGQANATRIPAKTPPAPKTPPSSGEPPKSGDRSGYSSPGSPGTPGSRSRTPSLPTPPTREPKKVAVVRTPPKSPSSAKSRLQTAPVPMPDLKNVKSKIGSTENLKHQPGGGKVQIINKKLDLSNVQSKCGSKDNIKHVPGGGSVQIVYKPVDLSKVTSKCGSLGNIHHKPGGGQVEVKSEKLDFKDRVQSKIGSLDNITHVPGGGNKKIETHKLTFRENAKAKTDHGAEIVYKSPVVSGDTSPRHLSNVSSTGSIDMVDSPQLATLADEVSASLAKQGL

inhibition at 50 µM (Tau(306-336) peptide)	Compound	% survival neurotoxicity @ 10 μM [1]	climbing abilities of Aβ42 Drosophila flies on day 21 ([2]; 20 μM in fly food)	climbing abilities of Aβ42 Drosophila flies ([2]; 20 μM in fly food, days 7, 14, 21 post-eclosion)	lifespan of Aβ42 Drosophila flies [3]	inhibition at 10 µM (Tau protein)	solubility (physchem)	inhibition at 10 µM (Aβ42)	solubility in Tau(306-336) aggregation assay conditions ([4]; 50 μM, phosphate buffer 50 mM pH 7.4, NS = not soluble in the assay conditions)	solubility in Aβ42 ThT-based assay condition ([4]; dedicated solubility assays)	Papp (PAMPA-BBB assay; PAMPA, pH 7.4)	BBB permeability prediction (PAMPA-BBB assay; PAMPA-BBB)	CNS (+/-) (PAMPA-BBB assay; PAMPA-BBB penetration estimation)	climbing abilities of Aβ42 Drosophila flies on day 21 ([2]; 50 μM in fly food)
–	CN(C)CCN1C(=O)S/C(=C\c2ccc3[nH]c4ccc(/C=C5\SC(=O)N(CCN(C)C)C5=O)cc4c3c2)C1=O [Compound 22, (5Z,5′Z)-5,5′-((9H-Carbazole-3,6-diyl)bis(methanylylidene))bis(3-(2-(dimethylamino)ethyl)thiazolidine-2,4-dione)]	94.3 ± 1.8%	good climbing performances	greatly improving the climbing performances	increase in longevity	66.1 ± 3.9%	< 50 µM	74 ± 4.3%	solubility issues	too limited to grant trustable results	5.3 ± 1.17 ×10⁻⁶ cm/s	predicted to passively diffuse across the BBB	CNS + (CNS + (high BBB permeation predicted): Pe (×10-6 cm s-1) > 4.0)	–
61.5 ± 0.8%	C[C@H]1c2cccc(O)c2C(=O)C2=C(O)[C@]3(O)C(=O)C(C(N)=O)=C(O)[C@@H](N(C)C)[C@@H]3[C@@H](O)[C@@H]21 [Doxycycline, doxycycline, reference compound]	–	–	–	–	–	–	–	–	–	–	–	–	strongly declined
